Results: patent publication US4740601A, “Imidazole derivatives having antimicrobial activities” (SS Pharmaceutical Co., Ltd., priority 1985, dated 1988)
Like-named read-outs stand apart in the source and are kept apart here.

Tests used:
Type in all cases: cell-based
[1] = test system: Gibberella fujikuroi IAM 8046; assay: antimicrobial activity, MIC
[2] = test system: Pyricularia oryzae IAM 5016; assay: microbe, parasite or virus in culture
[3] = test system: Streptococcus faecalis IFO 12964; assay: antimicrobial activity, MIC
[4] = test system: Candida albicans Yu-1200; assay: antimicrobial activity, MIC
[5] = test system: Micrococcus lysodeixticus IFO 3333; assay: antimicrobial activity, MIC
[6] = test system: Debaryomyces kloeckeri IFO 0015; assay: antimicrobial activity, MIC
[7] = test system: Trichophyton mentagrophytes IFO 5812; assay: antimicrobial activity, MIC
[8] = test system: Fusarium moniliforme IAM 5062; assay: antimicrobial activity, MIC
[9] = test system: Trichophyton rubrum NHL J; assay: antimicrobial activity, MIC
[10] = test system: Staphylococcus aureus Smith; assay: antimicrobial activity, MIC
[11] = test system: Cladosporium fulvum IAM 5006; assay: antimicrobial activity, MIC
[12] = test system: Bacillus subtilis ATCC 6633; assay: antimicrobial activity, MIC
[13] = test system: Saccharomyces cerevisiae ATCC 9763; assay: antimicrobial activity, MIC
[14] = test system: Aspergillus oryzae IMF 4014; assay: antimicrobial activity, MIC
[15] = test system: Saccharomyces ruxii 6507; assay: antimicrobial activity, MIC
[16] = test system: Staphylococcus aureus Terajima; assay: antimicrobial activity, MIC
[17] = test system: Staphylococcus epidermidis ATCC 12228; assay: antimicrobial activity, MIC
[18] = test system: Sarcina lutea ATCC 9341; assay: antimicrobial activity, MIC
[19] = test system: Staphylococcus aureus FDA 209P; assay: antimicrobial activity, MIC
[20] = test system: Trichophyton tonsurans IFO 5928; assay: antimicrobial activity, MIC
[21] = test system: Penicillium chrysogenum ATCC 6010; assay: antimicrobial activity, MIC
[22] = test system: Epidermophyton floccosum IFO 9045; assay: antimicrobial activity, MIC
[23] = test system: Aspergillus niger ATCC 9642; assay: antimicrobial activity, MIC
[24] = test system: Microsporum cookei IFO 8303; assay: antimicrobial activity, MIC
[25] = test system: Trichophyton mentagrophytes QM 248; assay: antimicrobial activity, MIC
[26] = test system: Candida albicans NHL 4019; assay: antimicrobial activity, MIC
[27] = test system: Helminthosporium sesamum IAM 5012; assay: antimicrobial activity, MIC
[28] = test system: Microsporum gypseum IFO 8231; assay: antimicrobial activity, MIC
[29] = test system: Microsporum audounii IFO 6074; assay: antimicrobial activity, MIC
[30] = Fusarium fujikuroi, IAM8046, Gibberella fujikuroi IAM 8046, read-out: MIC
[31] = Pyricularia oryzae, IAM5016, Pyricularia oryzae IAM 5016
[32] = Enterococcus faecalis, IFO12964, Streptococcus faecalis IFO 12964, read-out: MIC
[33] = Micrococcus, IFO3333, Micrococcus lysodeixticus IFO 3333, read-out: MIC
[34] = Trichophyton mentagrophytes, IFO5812, Trichophyton mentagrophytes IFO 5812, read-out: MIC
[35] = Fusarium verticillioides, IAM5062, Fusarium moniliforme IAM 5062, read-out: MIC
[36] = Trichophyton rubrum, Trichophyton rubrum NHL J, read-out: MIC
[37] = Staphylococcus aureus, read-out: MIC
[38] = Fulvia fulva, IAM5006, Cladosporium fulvum IAM 5006, read-out: MIC
[39] = Bacillus subtilis, ATCC6633, Bacillus subtilis ATCC 6633, read-out: MIC
[40] = Saccharomyces cerevisiae, ATCC9763, Saccharomyces cerevisiae ATCC 9763, read-out: MIC
[41] = Aspergillus oryzae, IMF4014, Aspergillus oryzae IMF 4014, read-out: MIC
[42] = Saccharomyces ruxii 6507, read-out: MIC
[43] = Staphylococcus epidermidis, ATCC12228, Staphylococcus epidermidis ATCC 12228, read-out: MIC
[44] = Micrococcus luteus, ATCC9341, Sarcina lutea ATCC 9341, read-out: MIC
[45] = Staphylococcus aureus, FDA209P, read-out: MIC
[46] = Trichophyton tonsurans, IFO5928, Trichophyton tonsurans IFO 5928, read-out: MIC
[47] = Penicillium chrysogenum, ATCC6010, Penicillium chrysogenum ATCC 6010, read-out: MIC
[48] = Epidermophyton floccosum, IFO9045, Epidermophyton floccosum IFO 9045, read-out: MIC
[49] = Aspergillus niger, ATCC9642, Aspergillus niger ATCC 9642, read-out: MIC
[50] = Paraphyton cookei, IFO8303, Microsporum cookei IFO 8303, read-out: MIC
[51] = Trichophyton mentagrophytes, QM248, Trichophyton mentagrophytes QM 248, read-out: MIC
[52] = Candida albicans, NHL4019, Candida albicans NHL 4019, read-out: MIC
[53] = Helminthosporium, IAM5012, Helminthosporium sesamum IAM 5012, read-out: MIC
[54] = Nannizzia gypsea, IFO8231, Microsporum gypseum IFO 8231, read-out: MIC
[55] = Microsporum, IFO6074, Microsporum audounii IFO 6074, read-out: MIC
[56] = Trichophyton mentagrophytes IFO 5812

Measured: MIC

CCCCCOc1ccccc1C(=CSCC)n1ccnc1 (single isomer, unassigned) [Compound 34]
< 0.2 µg/mL: [1]; [30] | [2]; [31] | [7]; [34] | [9]; [36] | [13]; [40] | [15]; [42] | [20]; [46] | [25]; [51] | [27]; [53] | [28]; [54] | [29]; [55]
1.56 µg/mL: [14]; [41] | [18]; [44] | [22]; [48] | [24]; [50]
3.12 µg/mL: [12]; [39] | [17]; [43] | [21]; [47]
12.5 µg/mL: [3]; [32] | [10]; [37] | [16]; [37] | [19]; [45]
0.78 µg/mL: [6]; IFO0015, read-out: MIC | [23]; [49]
50 µg/mL: [4]; YU1200, read-out: MIC | [26]; [52]
0.39 µg/mL: [5]; [33] | [8]; [35]
25 µg/mL: [11]; [38]

CCCCCCOc1ccccc1C(=COC)n1ccnc1 (single isomer, unassigned) [Compound 73]
50 µg/mL: [4]; YU1200, read-out: MIC | [13]; [40] | [26]; [52]
12.5 µg/mL: [3]; [32] | [8]; [35] | [10]; [37] | [19]; [45] | [23]; [49]
6.25 µg/mL: [1]; [30] | [11]; [38] | [12]; [39] | [14]; [41] | [16]; [37] | [17]; [43] | [18]; [44] | [21]; [47] | [22]; [48] | [24]; [50] | [27]; [53]
1.56 µg/mL: [2]; [31] | [7]; [56] | [9]; Trichophyton rubrum | [15]; Saccharomyces, 6507, Saccharomyces ruxii 6507
0.78 µg/mL: [29]; [55]
3.12 µg/mL: [5]; [33] | [6]; IFO0015, read-out: MIC | [20]; [46] | [25]; [51] | [28]; [54]

CCCCCCOc1ccccc1C(=CCl)n1ccnc1 (single isomer, unassigned) [Compound 83]
25 µg/mL: [1]; [30] | [8]; [35] | [13]; [40] | [21]; [47]
50 µg/mL: [26]; [52]
12.5 µg/mL: [3]; [32] | [4]; YU1200, read-out: MIC | [10]; [37] | [11]; [38] | [14]; [41] | [19]; [45] | [23]; [49]
3.12 µg/mL: [18]; [44]
< 0.2 µg/mL: [2]; [31] | [7]; [34] | [9]; [36] | [15]; [42] | [20]; [46] | [25]; [51] | [29]; [55]
1.56 µg/mL: [5]; [33] | [28]; [54]
6.25 µg/mL: [6]; IFO0015, read-out: MIC | [12]; [39] | [16]; [37] | [17]; [43] | [22]; [48] | [24]; [50] | [27]; [53]

CCCOc1ccccc1C(=CSCc1ccccc1)n1ccnc1 (single isomer, unassigned) [Compound 4]
1.78 µg/mL: [22]; Epidermophyton floccosum IFO 9045
> 100 µg/mL: [4]
0.78 µg/mL: [1]; Gibberella fujikuroi IAM 8046 | [8]; Fusarium moniliforme IAM 5062
3.12 µg/mL: [5]; Micrococcus lysodeixticus IFO 3333 | [21]; Penicillium chrysogenum ATCC 6010
1.56 µg/mL: [14]; Aspergillus oryzae IMF 4014 | [23]; Aspergillus niger ATCC 9642 | [24]; Microsporum cookei IFO 8303
12.5 µg/mL: [3]; Streptococcus faecalis IFO 12964 | [10] | [16] | [17]; Staphylococcus epidermidis ATCC 12228
6.25 µg/mL: [6] | [12]; Bacillus subtilis ATCC 6633 | [18]; Sarcina lutea ATCC 9341
< 0.2 µg/mL: [2]; Pyricularia oryzae IAM 5016 | [7]; [56] | [9]; Trichophyton rubrum NHL J | [13]; Saccharomyces cerevisiae ATCC 9763 | [15]; Saccharomyces ruxii 6507 | [20]; Trichophyton tonsurans IFO 5928 | [25]; Trichophyton mentagrophytes QM 248 | [27]; Helminthosporium sesamum IAM 5012 | [28]; Microsporum gypseum IFO 8231 | [29]; Microsporum audounii IFO 6074
25 µg/mL: [11]; Cladosporium fulvum IAM 5006 | [19] | [26]; Candida albicans NHL 4019
